The record followed here is patent US7704995B2 (Exelixis, Inc., priority 2003, dated 2010).

The target in one test is T1, Chk1 (Homo sapiens, UniProt O14757).
T1 construct: purchased Upstate Biotechnology
T1 sequence (O14757 1-476): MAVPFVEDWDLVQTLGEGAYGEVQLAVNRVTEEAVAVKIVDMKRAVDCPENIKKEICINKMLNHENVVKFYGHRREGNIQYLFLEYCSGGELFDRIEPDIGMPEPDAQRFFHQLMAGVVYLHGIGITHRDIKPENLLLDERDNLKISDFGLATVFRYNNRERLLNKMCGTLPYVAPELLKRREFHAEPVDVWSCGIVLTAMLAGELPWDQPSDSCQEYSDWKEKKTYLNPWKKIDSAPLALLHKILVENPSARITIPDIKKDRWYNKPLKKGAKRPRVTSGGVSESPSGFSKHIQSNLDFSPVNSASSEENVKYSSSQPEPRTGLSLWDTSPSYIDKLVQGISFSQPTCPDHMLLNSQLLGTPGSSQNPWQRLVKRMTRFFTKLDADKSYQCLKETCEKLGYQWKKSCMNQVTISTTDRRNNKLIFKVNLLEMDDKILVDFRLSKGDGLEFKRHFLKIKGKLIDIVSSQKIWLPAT
Briefly: Chk1 kinase assay: incorporation of γ-33P ATP into immobilized myelin basic protein. The following applies: Table 11, Chk1 only; class symbols A-D; read-out: Chk1 IC50. Format: biochemical. The procedure, abridged:
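Enzyme activity is measured as γ-33P transfer from ATP onto immobilized MBP over 1 h at room temperature, with Chk1 at 10 nM/10 μM unlabeled ATP and Chk2 at 20 nM/30 μM unlabeled ATP. Compounds are tested in 1% DMSO.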
For the compound `Nc1ncc(-c2cccc(O)c2)nc1C(=O)N[C@H]1CCNC1` [Example 811, 3-amino-6-(3-hydroxyphenyl)-N-[(3S)-pyrrolidin-3-yl]pyrazine-2-carboxamide], the IC50 (in general, the point on the concentration scale where inhibition reaches its midpoint) lay within 50 to 1000 nM. With `Nc1ncc(-c2cccc(C(=O)NCc3ccc(F)cc3F)c2)nc1C(=O)N[C@H]1CCCNC1` [Example 848, 3-amino-6-[3-({[(2,4-difluorophenyl)methyl]amino}carbonyl)phenyl]-N-[(3S)-piperidin-3-yl]pyrazine-2-carboxamide], the IC50 was under 50 nM. On the same count and under the same terms, as for `Nc1ncc(-c2cccc(C(=O)NCc3ccc4c(c3)OCCO4)c2)nc1C(=O)N[C@H]1CCCNC1` [Example 860, 3-amino-6-(3-{[(2,3-dihydro-1,4-benzodioxin-6-ylmethyl)amino]carbonyl}phenyl)-N-[(3S)-piperidin-3-yl]pyrazine-2-carboxamide], the figure is under 50 nM.

On to `Nc1ncc(-c2cccc(CNS(=O)(=O)c3ccc(C(F)(F)F)cc3)c2)nc1C(=O)N[C@H]1CCCNC1` [Example 918, 3-amino-N-[(3S)-piperidin-3-yl]-6-{3-[({[4-(trifluoromethyl)phenyl]sulfonyl}amino)methyl]phenyl}pyrazine-2-carboxamide], for which the IC50 fell in the range of 50 to 1000 nM. Take `Nc1ncc(-c2cccc(C(=O)NCc3ccc(F)cc3F)c2)nc1-c1nc([C@H]2CCCNC2)n[nH]1` [Example 865, 3-(5-amino-6-{3-[(3S)-piperidin-3-yl]-1H-1,2,4-triazol-5-yl}pyrazin-2-yl)-N-[(2,4-difluorophenyl)methyl]benzamide]: the IC50 was under 50 nM.

In the case of `Nc1ncc(-c2cccc(CNC(=O)Nc3ccc4ccccc4c3)c2)nc1C(=O)N[C@H]1CCCNC1` [Example 896], the half-inhibitory concentration (IC50) is under 50 nM.

Regarding `Nc1ncc(-c2cccc(C(=O)NCc3ccc4c(c3)OCO4)c2)nc1C(=O)N[C@H]1CCCNC1` [Example 853, 3-amino-6-(3-{[(1,3-benzodioxol-5-ylmethyl)amino]carbonyl}phenyl)-N-[(3S)-piperidin-3-yl]pyrazine-2-carboxamide], the IC50 was under 50 nM.

The same test, now with this note: Table 11; Chk1 only; read-out: Chk1 IC50.
Consider `C/C(=N\N1CCN(C)CC1)c1nc(-c2cccc(C(=O)NCc3ccccc3)c2)cnc1N` [Example 642, 3-{5-amino-6-[(1E)-N-(4-methylpiperazin-1-yl)ethanimidoyl]pyrazin-2-yl}-N-(phenylmethyl)benzamide], for which the IC50 was 50 to 1000 nM. `CNC(=O)c1nc(-c2cccc(CN[C@@H]3CCN(Cc4ccccc4)C3)c2)cnc1N` [Example 438, 3-amino-N-methyl-6-[3-({[(3R)-1-(phenylmethyl)pyrrolidin-3-yl]amino}methyl)phenyl]pyrazine-2-carboxamide]: the half-maximal inhibitory concentration (IC50) lay in the range of 50 to 1000 nM. Consider `COCc1nnc(-c2nc(-c3cccc(CN[C@H]4CCc5ccccc54)c3)cnc2N)[nH]1` [Example 595, 5-(3-{[(1S)-2,3-dihydro-1H-inden-1-ylamino]methyl}phenyl)-3-{5-[(methyloxy)methyl]-4H-1,2,4-triazol-3-yl}pyrazin-2-amine], for which the IC50 is 1000 to 10000 nM.

For `CSc1ccc(CNC(=O)c2cccc(-c3cnc(N)c(C(=O)N[C@H]4CCN(C(=O)OC(C)(C)C)C4)n3)c2)cc1` [Example 741, 1,1-dimethylethyl (3S)-3-{[(3-amino-6-{3-[({[4-(methylthio)phenyl]methyl}amino)carbonyl]phenyl}pyrazin-2-yl)carbonyl]amino}pyrrolidine-1-carboxylate], the IC50 was 1000 to 10000 nM.

`C/C(=N\n1nnc2ccccc21)c1nc(-c2cccc(C(=O)NCc3ccccc3)c2)cnc1N` [Example 637, 3-{5-amino-6-[(1E)-N-1H-1,2,3-benzotriazol-1-ylethanimidoyl]pyrazin-2-yl}-N-(phenylmethyl)benzamide]: the IC50 is at least 10000 nM. Regarding `Nc1ncc(-c2cccc(C(=O)NCc3ccccn3)c2)nc1C(=O)N[C@H]1CCNC1` [Example 761, 3-amino-6-(3-{[(pyridin-2-ylmethyl)amino]carbonyl}phenyl)-N-[(3S)-pyrrolidin-3-yl]pyrazine-2-carboxamide], the IC50 was 50 to 1000 nM. Take `Nc1ncc(-c2cccc(C(=O)NCc3ccccc3)c2)nc1C(=O)NCCCNS(=O)(=O)c1ccccn1` [Example 654, 3-amino-6-(3-{[(phenylmethyl)amino]carbonyl}phenyl)-N-{3-[(pyridin-2-ylsulfonyl)amino]propyl}pyrazine-2-carboxamide]: the IC50 was 1000 to 10000 nM. For the compound `Cc1nc(-c2nc(-c3cccc(C(=O)NCc4ccccc4)c3)cnc2N)nn1-c1ccccn1` [Example 702, 3-[5-amino-6-(5-methyl-1-pyridin-2-yl-1H-1,2,4-triazol-3-yl)pyrazin-2-yl]-N-(phenylmethyl)benzamide], the IC50 was in the range of 1000 to 10000 nM. Same read-out and setting: with `Nc1ncc(-c2cccc(CN[C@H]3CCc4ccccc43)c2)nc1C(=O)NCC(F)(F)F` [Example 537, 3-amino-6-(3-{[(1S)-2,3-dihydro-1H-inden-1-ylamino]methyl}phenyl)-N-(2,2,2-trifluoroethyl)pyrazine-2-carboxamide] the figure was 1000 to 10000 nM; with `Nc1ncc(-c2cccc(CN[C@H]3CCc4ccccc43)c2)nc1C(=O)NCCCO` [Example 561, 3-amino-6-(3-{[(1S)-2,3-dihydro-1H-inden-1-ylamino]methyl}phenyl)-N-(3-hydroxypropyl)pyrazine-2-carboxamide], 50 to 1000 nM.

`C[C@@H](NC(=O)c1cccc(-c2cnc(N)c(C(=O)N[C@H]3CCN(C(=O)OC(C)(C)C)C3)n2)c1)c1ccccc1` [Example 710, 1,1-dimethylethyl (3S)-3-[({3-amino-6-[3-({[(1R)-1-phenylethyl]amino}carbonyl)phenyl]pyrazin-2-yl}carbonyl)amino]pyrrolidine-1-carboxylate]: the IC50 was at least 10000 nM. Consider `CNC(=O)c1nc(-c2cccc(CN[C@@H]3CCc4cc(Br)ccc4C3)c2)cnc1N` [Example 463, 3-amino-6-[3-({[(2R)-6-bromo-1,2,3,4-tetrahydronaphthalen-2-yl]amino}methyl)phenyl]-N-methylpyrazine-2-carboxamide], for which the IC50 was 50 to 1000 nM.

Staying with this test, now noted: read-out: Chk1 IC50.
Take `CNC(=O)c1nc(-c2cccc(C(=O)NCc3ccc(F)cc3F)c2)cnc1N` [Example 226, 3-amino-6-[3-({[(2,4-difluorophenyl)methyl]amino}carbonyl)phenyl]-N-methylpyrazine-2-carboxamide]: the IC50 was in the range of 50 to 1000 nM.

As to `CNC(=O)c1nc(-c2cccc(C(=O)NCc3ccccc3-c3ccncc3)c2)cnc1N` [Example 390, 3-amino-N-methyl-6-[3-({[(2-pyridin-4-ylphenyl)methyl]amino}carbonyl)phenyl]pyrazine-2-carboxamide], the IC50 was 50 to 1000 nM. `CNC(=O)c1nc(-c2ccc(C(=O)N[C@H]3CCc4ccccc43)cc2)cnc1N` [Example 154, 3-amino-6-(4-{[(1S)-2,3-dihydro-1H-inden-1-ylamino]carbonyl}phenyl)-N-methylpyrazine-2-carboxamide]: the IC50 is 50 to 1000 nM.

For `CNC(=O)c1nc(-c2cccc(CNCc3cccc(-c4csnn4)c3)c2)cnc1N` [Example 423, 3-amino-N-methyl-6-{3-[({[3-(1,2,3-thiadiazol-4-yl)phenyl]methyl}amino)methyl]phenyl}pyrazine-2-carboxamide], the IC50 was in the range of 50 to 1000 nM.

In the case of `CNC(=O)c1nc(-c2cccc(CNC(=O)c3ccc(I)cc3)c2)cnc1N` [Example 350, 3-amino-6-[3-({[(4-iodophenyl)carbonyl]amino}methyl)phenyl]-N-methylpyrazine-2-carboxamide], the IC50 was under 50 nM.

On to `CNC(=O)c1nc(-c2cccc(C(=O)NCc3cccc(OC)c3OC)c2)cnc1N` [Example 113, 3-amino-6-{3-[({[2,3-bis(methyloxy)phenyl]methyl}amino)carbonyl]phenyl}-N-methylpyrazine-2-carboxamide], for which the IC50 lay within 50 to 1000 nM. The same measure, in the same setting: as for `CNC(=O)c1nc(-c2cccc(C(=O)NCc3c(Cl)cccc3Oc3ccccc3)c2)cnc1N` [Example 247, 3-amino-6-{3-[({[2-chloro-6-(phenyloxy)phenyl]methyl}amino)carbonyl]phenyl}-N-methylpyrazine-2-carboxamide], the figure is 50 to 1000 nM; as for `CNC(=O)c1nc(-c2cccc(C(=O)NCCNc3ccccc3)c2)cnc1N` [Example 412, 3-amino-N-methyl-6-[3-({[2-(phenylamino)ethyl]amino}carbonyl)phenyl]pyrazine-2-carboxamide], 50 to 1000 nM; as for `CNC(=O)c1nc(-c2ccc(C(=O)NCc3ccc(Cl)cc3Cl)cc2)cnc1N` [Example 152, 3-amino-6-[4-({[(2,4-dichlorophenyl)methyl]amino}carbonyl)phenyl]-N-methylpyrazine-2-carboxamide], 50 to 1000 nM. On to `CNC(=O)c1nc(-c2cccc(C(=O)NCc3ccc(C(C)C)cc3)c2)cnc1N` [Example 345, 3-amino-N-methyl-6-{3-[({[4-(1-methylethyl)phenyl]methyl}amino)carbonyl]phenyl}pyrazine-2-carboxamide], for which the IC50 is 50 to 1000 nM. For `CNC(=O)c1nc(-c2cccc(C(=O)N[C@@H]3CCN(Cc4ccc(Cl)cc4Cl)C3)c2)cnc1N` [Example 360, 3-amino-6-{3-[({(3R)-1-[(2,4-dichlorophenyl)methyl]pyrrolidin-3-yl}amino)carbonyl]phenyl}-N-methylpyrazine-2-carboxamide], the IC50 lay within 50 to 1000 nM.
